Format: physicochemical
Settings: kaolin clay slurry, no further addition of acid or chlorine donor

Sodium Chlorite [stabilized chlorine dioxide]
persistence of oxidizing/biocidal effects: up to 14 days

Reference: patent US20040237845A1 (priority 2002, published 2004)
